Like-named read-outs stand apart in the source and are kept apart here.
Legend:
[1] = tested on: Agrobacterium biosensor cells; assay: Minimal inhibitory concentration (MIC); assay type: cell-based, Agrobacterium tumefaciens; details: 10^5 CFU/ml, 36 h at 30°C
Method: Aside from the effect of QSI on QS regulation, the toxicity of these compounds was tested on bacterial cells by measuring two parameters: the minimal inhibitory concentration (MIC) and minimal bactericidal concentration (MBC). MIC, which is the lowest concentration of QSI (µg/ml) inhibiting any visible culture after 36 h of incubation at 30°C, was estimated by culturing 10^5 CFU/ml of the Agrobacterium biosensor cells in the presence of different concentrations of the QSI. MBC, which is the lowest concentration of QSI (µg/ml) that results in a 99.9% reduction of the initial bacterial population (10^5 CFU/ml) after 36 h of incubation at 30°C in the presence of different concentrations of QSI, was estimated by plating 100 µL of the Agrobacterium cultures on agar LBm plates. After an incubation of 48 h at 30°C, CFU were counted and the MBC values were calculated.

P. aeruginosa = assay: Growth kinetics of P. aeruginosa in the presence of QSIs; assay type: cell-based, Pseudomonas aeruginosa; details: QSI at 0.5 mg/ml, OD600 and CFU at 8 and 18 hour
Method: Figure 5 QSIs modulated QS-signal accumulation in P. aeruginosa. Growth kinetics (n = 6) of P. aeruginosa was measured (OD600) in the presence of the QSIs (estradiol, estrone, estriol, hordenine and 4-NPO) at 0.5 mg/ml using DMSO as a negative control. Cell counts were assessed (CFU/ml) at 8- and 18-hour, and C4-HSL and OC12-HSL concentration (µM) were determined in the bacterial cultures at 18-hour. Statistically different values (Student's t test with α = 0.01) are noted by asterisks.
(§1) QS gene transcription in P. aeruginosa PAO1 was monitored using PAO1 strains carrying various gene promoters fused to a lacZ reporter gene, as described in Vandeputte et al., 2010 and Table 1. PAO1 reporter strains were prepared according to Vandeputte et al.. Briefly, 18-hours-old liquid cultures (50 µl) were diluted in order to obtain a starting OD600 nm comprised between 0.02 and 0.03 in fresh LB medium supplemented with 50 mM MOPS pH 7.0 (1 ml), carbenicillin (300 µg/ml) and 10 µl of the QSIs to be tested (OD were measured using a SpectraMax M2 device from Molecular Devices). Test and control QSIs were diluted in 100% DMSO (resulting after addition to the growth medium in a 1% final concentration of DMSO). Cultures were incubated for 18 hours at 37°C with agitation. After incubation, cell densities were assessed spectrophotometrically (OD600 nm) and β-galactosidase assays were performed using the substrate o-nitrophenyl-β-D-galactopyranoside as described previously, [29]. Promoterless-lacZ fusions were used as controls. AHLs were quantified as described in Vandeputte et al.. All tests were performed in quintuplicates and three biological repetitions. The statistical significance of each test was evaluated by conducting Student's t tests and two-way ANOVA combined with the Tukey post-analysis test using the GraphPad Prism software and p values≤0.01 were considered significant.

[2] = tested on: QS-regulated genes lasI, lasR, lasB, rhlI, rhlR, rhlA in P. aeruginosa PAO1; assay: QS-regulated gene expression, lacZ transcriptional fusions in PAO1; assay type: cell-based, Pseudomonas aeruginosa; details: for expression of six QS-regulated genes (lasI, lasR, lasB, rhlI, rhlR, rhlA): QSI at 0.5 mg/ml, 18 hours at 37°C, β-galactosidase; for inhibition of expression of the regulators lasR and rhlR (rank) / impact on rhlI expression relative to naringenin, estradiol and estrone: QSIs at 0.5 mg/ml; for impact on rhlI expression relative to naringenin, estradiol and estrone: naringenin at 1 mg/ml
Method: Figure 6 QSIs modulated QS-regulated genes in P. aeruginosa. The β-galactosidase (b-Gal) activity in Miller unit (MU) of the transcriptional fusions lasI-lacZ (A), lasR-lacZ (B), lasB-lacZ (C), rhlI-lacZ (D), rhlR-lacZ (E), rhlA-lacZ (F), and aecA-lacZ(G) were measured in the presence of estradiol, estrone, estriol, hordenine at 0.5 mg/ml, and naringenin at 1 mg/ml as a positive control and DMSO as a negative control. The statistical significance of each test (n = 5 and three biological replicates) was evaluated by Student's t test (i.e. each test was compared with the DMSO condition). Asterisks indicate statistically different data (p value of ≤0.01).
as §1

Molecule	MIC [1] [µg/mL]	effect on growth of P. aeruginosa (P. aeruginosa)	expression of six QS-regulated genes (lasI, lasR, lasB, rhlI, rhlR, rhlA) [2]	MIC ([1]; Agrobacterium, read-out: MIC) [µg/mL]	inhibition of expression of the regulators lasR and rhlR (rank) [2]	impact on rhlI expression relative to naringenin, estradiol and estrone [2]
3-Hydroxy-13-methyl-6,7,8,9,11,12,13,14,15,17-decahydro-cyclopenta[a] phenanthren-16-one [Compound 729, reference compound]	>100	did not affect the growth	decreased	–	–	–
CN(C)CCc1ccc(O)cc1 [Compound 3499, hordenine]	–	slightly delayed the growth	decreased	> 100	the most	lower impact
C[C@]12CC[C@@H]3c4ccc(O)cc4CC[C@H]3[C@@H]1C[C@@H](O)[C@@H]2O [Estriol, estriol]	–	did not affect the growth	decreased	> 100	the least	lower impact
